Test results from patent US20220125882A1, “METHODS AND COMPOSITIONS FOR TREATMENT OF CANCER” (Enzychem Lifesciences Corporation, priority 2019, published 2022).
Several values for one entry are separate records, joined by “and”; a condition that tells them apart may be missing. Identical values can stand only once. Entries after “also recorded” stand apart in the source; their conditions may differ.

Columns and labels:
IFN-γ = IFN-γ ELISA of cell supernatants; format: cell-based; details: for IFN-γ ELISA (450 nm OD): Samples 1-3; for secretion of IFN-γ: TAN environment, PLAG treatment, or G-CSF co-stimulation vs neutrophil only group
Experimental: (§1) MDA-MB-231 and HL60 cells were obtained from the American Type Culture Collection (ATCC, Rockville, Md., USA). MDA-MB-231 cells were grown in DMEM medium (WELGENE, Seoul, Korea) containing 10% fetal bovine serum (HyClone, Waltham, Mass., USA), 1% antibiotics (100 mg/l streptomycin, 100 U/ml penicillin), and 0.4% 2-Mercaptoethanol (Sigma Aldrich, St. Louis, Mo., USA). HL60 cells were grown in DMEM medium containing 10% fetal bovine serum and 1% antibiotics (100 mg/l streptomycin, 100 U/ml penicillin). Cells were grown at 37° C. in a 5% CO2 atmosphere. To differentiate HL60 cells into neutrophil-like cells, cells were grown in medium with […] (Sigma Aldrich) for 5 days.
(§2) The levels of cytokine secretion in the cell supernatants or plasma were analyzed using an enzyme-linked immunosorbent assay (ELISA) specifically for cytokines from BD Bioscience according to the manufacturer's protocol. The absorbance was measured at 450 nm using an EMax Endpoint ELISA microplate reader (Molecular Devices Corporation, Sunnyvale, Calif., USA).

Vimentin = assay: PCR of EMT marker expression in MDA-MB-231: Vimentin; format: cell-based; details: for Vimentin PCR band intensity (relative intensity): MDA-MB-231, Neutrophil co-culture, relative to None = 1, Samples 1-3; for expression level of Vimentin: neutrophil and G-CSF co-stimulation group, with or without PLAG
Experimental: as §1
(§3) Total RNA was extracted using RiboEx (GeneAll biotechnology, Seoul, Korea) according to the manufacturer's instructions, and cDNA was generated using ReverseAids cDNA synthesis kit (Thermo Scientific, Waltham, Mass., USA) according to the manufacturer's instructions. PCR was performed with the following temperature profile: a pre-denaturation step of 10 min at 95° C., followed by 35 cycles of 95° C. for 30 sec, annealing temperature for 30 sec and 72° C. for 30 sec and a final exposure to 72° C. for 10 min. Specific primer sequence for amplification was Table 5.

SMAD2/3-SMAD4 complex = assay: Immunoprecipitation of Smad complex in MDA-MB-231; format: cell-based; details: TAN and G-CSF co-stimulation
Experimental: as §1
(§4) MDA-MB-231 cells treated with PLAG and stimulated to induce neutrophil and G-CSF co-stimulation for various times at 37° C. in a 5% CO2 atmosphere were lysed using ice-cold IP lysis buffer (25 mM Tris-HCl pH 7.4, 150 mM NaCl, 1% NP-40, 1 mM EDTA, 5% glycerol). Extracted proteins were incubated with Surebeads Protein G specific antibody bound magnetic beads (Bio-Rad, Hercules, Calif., USA). Beads were washed with PBS with Tween 20 (PBST) and target proteins eluted in 1× sample buffer and analyzed by Western blotting.

[1] = test system: MDA-MB-231 breast cancer cells; assay: Wound healing assay (mobility), TAN / G-CSF co-culture; format: cell-based; details: for mobility of the cancer cells: G-CSF and neutrophil co-stimulation group, with or without PLAG
Experimental: as §1
MDA-MB-231 were seeded in 12 well plate with cover glass, and incubated to 100% confluence at well. After the incubation, make the wound cell monolayer on center of well. A treated PLAG and neutrophil and G-CSF co-stimulation for indicate time. After treatment the indicated time and dose at 37° C. in a 5% CO2 atmosphere, the cells were fixed with 3.7% formaldehyde for 20 min and permeabilized with 0.2% Triton X-100 for 20 min and stained with 0.1% Phalloidin-FITC for 40 min. Fluorescence was detected by confocal (Carl Zeiss, Thornwood, N.Y., USA).

Snail = assay: PCR of EMT marker expression in MDA-MB-231: Snail; format: cell-based; details: for Snail PCR band intensity (relative intensity): MDA-MB-231, Neutrophil co-culture, relative to None = 1, Samples 1-3; for expression level of SNAIL: neutrophil and G-CSF co-stimulation group, with or without PLAG
Experimental: as §1, §3

Smad proteins = assay: Smad protein activity by Western blotting in MDA-MB-231; format: cell-based; details: TAN and G-CSF co-stimulation
Experimental: as §1, §4

[2] = test system: MDA-MB-231 breast cancer cells; assay: Transwell invasion assay (MTT readout); format: cell-based; details: for transwell invasion of the cancer cells: G-CSF and neutrophil co-stimulation group, with or without PLAG; for Invasive cell count (MTT assay, % transform): MDA-MB-231, Samples 1-3
Experimental: as §1
Quantitative macrophage chemoattraction assays were performed using a modified Boyden chamber (SPL lifescience, Seoul, Korea) with 8.0-μm pore polycarbonate membrane inserts with matrigel-coated in 24-well plates. The lower chamber was filled with apoptotic neutrophils for chemoattraction. The MDA-MB-231 cells (5×10^4 cells/ml) in serum-free medium were added into the upper chamber and treated with PLAG. The cells were allowed to chemoattraction (Neutrophil co-culture supernatant) for indicate times at 37° C. in a 5% CO2 atmosphere. The non-chemoattracted cells were removed from the upper surface of the membrane by scraping with a cotton swab, and the chemoattracted cells were calculate by MTT assay.

SMAD2/3 = assay: Confocal immunofluorescence of Smad nucleus translocation in MDA-MB-231; format: cell-based; details: TAN and G-CSF co-stimulation
Experimental: as §1
MDA-MB-231 cells were seeded in 12 well plate with cover glass, and incubated to 60% confluence at well. After the incubation, treated PLAG and neutrophil and G-CSF co-stimulation for indicate time. After treatment the indicated time at 37° C. in a 5% CO2 atmosphere, the cells were fixed with 3.7% formaldehyde for 20 min and permeabilized with 0.2% Triton X-100 for 20 min for staining. Cells were washed with PBST twice and reacted with specific antibody (SMAD2/3) for over-night at 4° C. Cells were washed with PBST twice and reacted secondary antibody. For nucleus detection, it stained with 1% Hoechst33342 for 20 min. Fluorescence was detected by confocal (Carl Zeiss, Thornwood, N.Y., USA).

N-cadherin = assay: PCR of EMT marker expression in MDA-MB-231: N-cadherin; format: cell-based; details: for N-cadherin PCR band intensity (relative intensity): MDA-MB-231, Neutrophil co-culture, relative to None = 1, Samples 1-3; for expression level of NCAD: neutrophil and G-CSF co-stimulation group, with or without PLAG
Experimental: as §1, §3

TGF-β = TGF-β ELISA of cell supernatants; format: cell-based; details: for TGF-β ELISA (450 nm OD): Samples 1-3; for secretion level of TGF-β: TAN and G-CSF costimulation environment, with or without PLAG
Experimental: as §1, §2

4T1 cell line = assay: 4T1 tumor-bearing mouse model: tumor size and weight on Day 8; format: in vivo, BALB/c mice; details: for % weight Increase: % increase (+) or decrease (−) of tumor weight over body weight compared to control; for Tumor Weight Increase: change of average tumor weight compared to control; for Tumor Weight Average / % weight Average: group average; for Tumor Weight No. 1 / % weight No. 1: individual mouse No. 1; for Tumor Weight No. 1: 4T1 tumor-bearing BALB/c mice; for Tumor Weight No. 2 / % weight No. 2: individual mouse No. 2; for Tumor Weight No. 3 / % weight No. 3: individual mouse No. 3; for Tumor Weight No. 4 / % weight No. 4: individual mouse No. 4; for Tumor Weight No. 5 / % weight No. 5: individual mouse No. 5; for % weight Average / % weight No. 1 / % weight No. 2 / % weight No. 3 / % weight No. 4 / % weight No. 5: tumor weight over body weight
Experimental: On Day 2 and Day 3, the mice were administered 10 mg/kg of gemcitabine twice. On Day 4, 3 μg/mouse of PEG-G-CSF (Pegfilgrastim) was administrated via subcutaneous injection to the mice once. On every day of the study, 50 mg/kg of EC-18 diluted with PBS was administrated orally to the mice. A total of 24 tumor-bearing mice were classified into 5 groups consisting of control group (4 mice, Control), G-CSF administration group (5 mice, PEG-G-CSF), gemcitabine administration group (5 mice, Gemcitabine), G-CSF and gemcitabine co-administration group (5 mice, Gem+PEG), and EC-18 co-administration group (5 mice, Gem+PEG+EC-18), as summarized in Table 1 and FIG. 1A.
On Day 8, all mice were sacrificed and their tumors removed. The size and weight of the tumors were measured.

Row | Molecule | IFN-γ ELISA (450 nm OD) (IFN-γ; Neutrophil co-culture) | secretion of IFN-γ (IFN-γ) | Vimentin PCR band intensity (relative intensity) (Vimentin) | expression level of Vimentin (Vimentin) | mobility of the cancer cells [1] | Snail PCR band intensity (relative intensity) (Snail) | expression level of SNAIL (Snail) | transwell invasion of the cancer cells [2] | Invasive cell count (MTT assay, % transform) ([2]; Neutrophil co-culture) | N-cadherin PCR band intensity (relative intensity) (N-cadherin) | expression level of NCAD (N-cadherin) | TGF-β ELISA (450 nm OD) (TGF-β; Neutrophil co-culture) | secretion level of TGF-β (TGF-β) | % weight Increase (4T1 cell line) | Tumor Weight Increase (4T1 cell line; Day 8) | Tumor Weight Average (4T1 cell line; Day 8) [×0.01 g] | Tumor Weight No. 1 (4T1 cell line; Day 8) [×0.01 g] | Tumor Weight No. 2 (4T1 cell line; Day 8) [×0.01 g] | Tumor Weight No. 3 (4T1 cell line; Day 8) [×0.01 g] | Tumor Weight No. 4 (4T1 cell line; Day 8) [×0.01 g] | also measured
1 | CCCCC/C=C\C/C=C\CCCCCCCC(=O)OC(COC(C)=O)COC(=O)CCCCCCCCCCCCCCC (stereo not shown) [PLAG, 1-palmitoyl-2-linoleoyl-3-acetylglycerol] | 0.181 OD and 0.158 OD and 0.164 OD | significantly increased | 0.501 and 0.512 and 0.504 | expression was decreased | inhibited the cancer cell abnormal-metastasis | 0.531 and 0.749 and 0.527 | expression was decreased | inhibited the cancer cell abnormal-metastasis | 212.500% and 235.417% and 216.667% | 0.723 and 0.747 and 0.732 | expression was decreased | 0.484 OD and 0.476 OD and 0.474 OD | did not significantly decrease; also recorded: did not change | – | – | – | – | – | – | – | IFN-γ ELISA (450 nm OD) (IFN-γ; without neutrophil): 0.144 OD and 0.149 OD and 0.156 OD; formation of the SMAD2/3-SMAD4 complex (SMAD2/3-SMAD4 complex): decreases; mobility of MDA-MB-231 cells ([1]; neutrophil-stimulated): mobility decreased; SMAD activity (TGF-β signal pathway) (Smad proteins): decreased; Invasive cell count (MTT assay, % transform) ([2]; without neutrophil): 89.583% and 104.167% and 102.083%; transwell invasion of MDA-MB-231 cells ([2]; neutrophil-stimulated culture sup.): invasion of cancer cells is decreased; nucleus translocation of SMAD2/3 and SMAD4 (SMAD2/3): decreased; TGF-β ELISA (450 nm OD) (TGF-β; without neutrophil): 0.248 OD and 0.287 OD and 0.208 OD
2 | Nc1ccn([C@@H]2O[C@H](CO)[C@@H](O)C2(F)F)c(=O)n1 [Gemcitabine, gemcitabine, reference compound] | – | – | – | – | – | – | – | – | – | – | – | – | – | −22.6% | −25.0% | 24 ± 12 | 38 | 9 | 32 | 27 | tumor weight decreased compared to control (4T1 cell line; Day 8): about 25%; Tumor Weight No. 5 (4T1 cell line; Day 8): 14 ×0.01 g; % weight Average (4T1 cell line; Day 8): 0.97 ± 0.51%; % weight No. 1 (4T1 cell line; Day 8): 1.55%; % weight No. 2 (4T1 cell line; Day 8): 0.36%; % weight No. 3 (4T1 cell line; Day 8): 1.32%; % weight No. 4 (4T1 cell line; Day 8): 1.08%; % weight No. 5 (4T1 cell line; Day 8): 0.54%
3 | G-CSF: granulocyte colony-stimulating factor used with neutrophils to co-stimulate MDA-MB-231 cells; form not specified (protein, UniProt P09919 31-207, looked up) Granulocyte …: TPLGPASSLPQSFLLKCLEQVRKIQGDGAALQEKLVSECATYKLCHPEELVLLGHSLGIPWAPLSSCPSQALQLAGCLSQLHSGLFLYQGLLQALEGISPELGPTLDTLQLDVADFATTIWQQMEELGMAPALQPTQGAMPAFASAFQRRAGGVLVASHLQSFLEVSYRVLRHLAQP | 0.139 OD and 0.102 OD and 0.094 OD | significantly lower | 1.832 and 1.854 and 1.867 | increased | further increased | 2.4 and 2.781 and 1.635 | increased | further increased | 366.667% and 352.083% and 383.333% | 4.517 and 4.511 and 5.214 | increased | 0.439 OD and 0.446 OD and 0.414 OD | increased | – | – | – | – | – | – | – | –
4 | PEG-G-CSF: pegfilgrastim, a PEGylated form of filgrastim (recombinant human G-CSF) (protein, UniProt P09919 31-207, looked up, PEG, N-terminal methionine) Granulocyte …: TPLGPASSLPQSFLLKCLEQVRKIQGDGAALQEKLVSECATYKLCHPEELVLLGHSLGIPWAPLSSCPSQALQLAGCLSQLHSGLFLYQGLLQALEGISPELGPTLDTLQLDVADFATTIWQQMEELGMAPALQPTQGAMPAFASAFQRRAGGVLVASHLQSFLEVSYRVLRHLAQP | – | – | – | – | – | – | – | – | – | – | – | – | – | +22.7% | +19.4% | 38 ± 11 | 47 | 30 | 53 | 30 | tumor weight increased compared to control (4T1 cell line; Day 8): about 19.4%; Tumor Weight No. 5 (4T1 cell line; Day 8): 31 ×0.01 g; % weight Average (4T1 cell line; Day 8): 1.54 ± 0.52%; % weight No. 1 (4T1 cell line; Day 8): 2.02%; % weight No. 2 (4T1 cell line; Day 8): 1.12%; % weight No. 3 (4T1 cell line; Day 8): 2.20%; % weight No. 4 (4T1 cell line; Day 8): 1.20%; % weight No. 5 (4T1 cell line; Day 8): 1.17%
